Measured values from ChEMBL document CHEMBL4610045, “Selective acetylcholinesterase inhibitors derived from muscle relaxant dantrolene” (Bioorg Med Chem Lett, 2020).
Where a name gives a salt, the structure may show the parent alone. Active and inactive are the calls of the source. The calls are words filed in the database; no cut-off is given here.

Experiments:
Acetylcholinesterase [1] = molecular target: T1, Acetylcholinesterase (Homo sapiens, UniProt P22303); test: Inhibition of AChE (unknown origin) using acetylthiocholine iodide as substrate by Ellman's method
[2] = molecular target: T2, BuChE (butyrylcholinesterase) (Homo sapiens, UniProt P06276); test: (§1) Inhibition of BuChE (unknown origin) at 1 uM relative to control
Acetylcholinesterase [3] = molecular target: T1, Acetylcholinesterase; test: Inhibition of AChE (unknown origin) at 1 uM using acetylthiocholine iodide as substrate by Ellman's method relative to control
Cholinesterase [4] = molecular target: T3, Cholinesterase (Homo sapiens, UniProt P06276); test: as §1; settings: 1 µM
Acetylcholinesterase [5] = molecular target: T1, Acetylcholinesterase; test: Non-competitive inhibition of AChE (unknown origin) at 100 to 200 nM using acetylthiocholine as substrate by Ellman's method based Lineweaver-Burk plot analysis
Homo sapiens = organism: Homo sapiens; test: Selectivity index, ratio of IC50 for BuChE (unknown origin) to IC50 for AChE (unknown origin) using acetylthiocholine iodide as substrate
Cholinesterase [6] = molecular target: T3, Cholinesterase; test: Inhibition of BuChE (unknown origin)
[7] = molecular target: T2, BuChE (butyrylcholinesterase); test: Inhibition of BuChE (unknown origin) at 20 nM relative to control

T1 sequence (P22303 whole entry): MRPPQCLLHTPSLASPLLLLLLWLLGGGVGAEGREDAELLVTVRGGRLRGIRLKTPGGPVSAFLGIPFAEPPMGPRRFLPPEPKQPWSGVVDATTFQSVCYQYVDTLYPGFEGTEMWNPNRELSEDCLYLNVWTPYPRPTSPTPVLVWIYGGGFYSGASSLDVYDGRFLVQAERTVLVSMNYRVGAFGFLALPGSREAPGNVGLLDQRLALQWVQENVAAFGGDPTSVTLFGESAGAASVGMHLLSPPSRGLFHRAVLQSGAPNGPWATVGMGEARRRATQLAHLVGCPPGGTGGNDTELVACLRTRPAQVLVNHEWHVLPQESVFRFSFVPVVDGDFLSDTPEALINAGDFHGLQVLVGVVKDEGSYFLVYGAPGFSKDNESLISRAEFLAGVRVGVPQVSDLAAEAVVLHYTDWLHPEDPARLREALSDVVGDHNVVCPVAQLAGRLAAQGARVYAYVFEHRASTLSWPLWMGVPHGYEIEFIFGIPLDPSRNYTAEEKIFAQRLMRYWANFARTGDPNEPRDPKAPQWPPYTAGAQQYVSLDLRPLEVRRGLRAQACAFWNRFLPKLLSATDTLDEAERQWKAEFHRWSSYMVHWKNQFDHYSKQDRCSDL
T2 sequence (P06276 whole entry): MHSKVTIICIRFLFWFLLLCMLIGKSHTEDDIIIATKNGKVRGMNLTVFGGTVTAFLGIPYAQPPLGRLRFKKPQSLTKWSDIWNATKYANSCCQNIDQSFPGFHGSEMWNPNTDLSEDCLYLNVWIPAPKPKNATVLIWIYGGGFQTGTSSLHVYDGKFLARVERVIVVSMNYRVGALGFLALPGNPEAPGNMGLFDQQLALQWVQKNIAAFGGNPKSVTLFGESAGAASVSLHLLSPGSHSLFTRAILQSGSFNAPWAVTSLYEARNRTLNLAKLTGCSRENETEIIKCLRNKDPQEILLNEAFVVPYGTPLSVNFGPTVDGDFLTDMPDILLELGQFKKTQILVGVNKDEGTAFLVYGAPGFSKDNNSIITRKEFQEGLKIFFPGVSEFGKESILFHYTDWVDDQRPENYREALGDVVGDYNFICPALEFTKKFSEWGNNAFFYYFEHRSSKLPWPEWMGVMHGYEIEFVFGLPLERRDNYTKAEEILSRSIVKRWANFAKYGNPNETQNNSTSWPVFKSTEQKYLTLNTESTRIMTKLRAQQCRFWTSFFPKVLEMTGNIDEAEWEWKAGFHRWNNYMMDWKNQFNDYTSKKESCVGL
T3 sequence (P06276 whole entry): as above

With `COc1cccc(-c2ccc(/C=N/N3CC(=O)N(CCC4CCN(Cc5ccccc5)CC4)C3=O)o2)c1` the IC50 (Acetylcholinesterase [1]) was 47 nM and the inhibition at 1 µM [2] was 3.8%.

In the case of `O=C1CN(/N=C/c2ccc(-c3ccc([N+](=O)[O-])cc3)o2)C(=O)N1CC1CCN(Cc2ccccc2)CC1`, the inhibition (Acetylcholinesterase [3]) is reported as “inactive”.

For `O=C1CN(/N=C/c2ccc(-c3ccc([N+](=O)[O-])cc3)o2)C(=O)N1CCC1CCN(Cc2ccccc2)CC1`, the IC50 (Acetylcholinesterase [1]) was 46.4 nM, the “inhibition (INH)” value (Cholinesterase [4]) was “Not Active” and the inhibition (Acetylcholinesterase [3]) was 91.3%.

`O=C1CN(/N=C/c2ccc(-c3ccccc3[N+](=O)[O-])o2)C(=O)N1CCC1CCN(Cc2ccccc2)CC1` was tested, and the IC50 (Acetylcholinesterase [1]) was 34.2 nM, the inhibition (Acetylcholinesterase [5]) was “Active” and the inhibition at 1 µM [2] was 14.6%. For the same compound, the Ratio IC50 (Homo sapiens) was 130 and the IC50 (Cholinesterase [6]) was 4470 nM.

`O=C1CN(/N=C/c2ccc(-c3cccc([N+](=O)[O-])c3)o2)C(=O)N1CCC1CCN(Cc2ccccc2)CC1` was tested, and the IC50 (Acetylcholinesterase [1]) was 290 nM and the “inhibition (INH)” value (Cholinesterase [4]) was “Not Active”.

Compound `Nc1c2c(nc3ccccc13)CCCC2` [TACRINE HYDROCHLORIDE] has an inhibition at 0.02 µM [7] of 64.5%.

With `COc1ccccc1-c1ccc(/C=N/N2CC(=O)N(CCC3CCN(Cc4ccccc4)CC3)C2=O)o1` the IC50 (Acetylcholinesterase [1]) was 90.4 nM and the inhibition at 1 µM [2] was 1.6%.

With `O=C1CN(/N=C/c2ccc(-c3ccc([N+](=O)[O-])cc3)o2)C(=O)N1CCN1CCN(Cc2ccccc2)CC1` the IC50 (Acetylcholinesterase [1]) was 201 nM, the “inhibition (INH)” value (Cholinesterase [4]) was “Not Active” and the inhibition (Acetylcholinesterase [3]) was 67.9%.

`COc1ccc(-c2ccc(/C=N/N3CC(=O)N(CCC4CCN(Cc5ccccc5)CC4)C3=O)o2)cc1` showed an IC50 (Acetylcholinesterase [1]) of 108 nM and an inhibition at 1 µM [2] of 4.6%.

`O=C1CN(/N=C/c2ccc(-c3ccc([N+](=O)[O-])cc3)o2)C(=O)N1` was tested, and the inhibition (Acetylcholinesterase [3]) was “inactive”.
